# According to patent publication US20220098203A1 (priority 2018, published 2022):
# Read-outs that look alike come from different tables or passages of the source.
# Legend:
# MAT2A homodimer = target: T1, MAT2A homodimer (Homo sapiens, UniProt P31153); assay: MAT2A biochemical assay (liberated phosphate, PiColorLock Gold); details: Table 5a; MAT2A biochemical assay; read-out: Enzyme Inhibition
# T1 construct: inferred from the Ni sepharose purification and imidazole elution; made in house; host or cells: SF9 insect cells, recombinant baculovirus (Bac to Bac, pFASTBAC1)
# Outline: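 Readout is liberated phosphate (PiColorLock Gold), stoichiometric with SAM production, quantified against a potassium phosphate standard curve. Enzyme: recombinant MAT2A homodimer from Sf9, equilibrated 60 min at 25 °C with compound before 60 min reaction with substrate mix containing 500 μM ATP and 400 μM L-methionine.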
# HCT116 MTAP+/+ = assay: Inhibition of cellular proliferation (Cell Titer Glo), HCT116 MTAP+/+; format: cell-based; details: Homo sapiens, HCT-116, 96 h, Table 5a, 4 days, read-out: 4 Day Relative Growth Inhibition (MTAP +/+)
# Outline: (§1)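 After 4 days of compound exposure at 37 °C, starting 24 h after plating, growth of the MTAP-wildtype and MTAP-deleted HCT116 pair was measured as ATP luminescence (CellTiter-Glo). The proliferation index was signal minus no-cell blank, divided by blank-corrected 0.2% DMSO control.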
# HCT116 MTAP-/- = assay: Inhibition of cellular proliferation (Cell Titer Glo), HCT116 MTAP-/-; format: cell-based, human; details: 4 days, read-out: 4 Day Relative Growth Inhibition (MTAP −/−)
# Outline: as §1
# [1] = system: SAM in HCT116 MTAP-deleted cells; assay: Cellular assay of target engagement (SAM), LC-MS/MS; format: cell-based, human; details: 72 h, read-out: Cell 72 h SAM Inhibition (MTAP −/−)
# Outline: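 Target engagement was read as intracellular SAM, measured by LC-MS/MS with d3-SAM as internal standard in methanol/acetic acid extracts. These came from MTAP-deleted HCT116 colon carcinoma cells exposed to inhibitor for 72 hrs.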
# [2] = Homo sapiens, HCT-116, 96 h, Table 5a
# [3] = Homo sapiens, HCT-116, Table 5a
# [4] = Table 6, select pairs of compounds
# T1 sequence (P31153 whole entry): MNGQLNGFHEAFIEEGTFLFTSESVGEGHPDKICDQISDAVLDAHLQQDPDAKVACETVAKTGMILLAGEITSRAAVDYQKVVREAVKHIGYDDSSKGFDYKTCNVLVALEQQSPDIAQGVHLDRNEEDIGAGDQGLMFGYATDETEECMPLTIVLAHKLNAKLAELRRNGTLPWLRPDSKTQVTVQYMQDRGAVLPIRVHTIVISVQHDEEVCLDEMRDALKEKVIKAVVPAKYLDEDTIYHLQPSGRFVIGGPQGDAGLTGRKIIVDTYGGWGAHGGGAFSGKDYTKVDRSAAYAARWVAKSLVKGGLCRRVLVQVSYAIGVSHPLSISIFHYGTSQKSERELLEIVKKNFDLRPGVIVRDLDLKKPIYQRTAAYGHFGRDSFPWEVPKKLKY
SMILES,IC50 (MAT2A homodimer) [nM],IC50 (HCT116 MTAP+/+) [nM],IC50 (HCT116 MTAP-/-; [2]) [nM],"IC50 [1, 3] [nM]",IC50 (HCT116 MTAP-/-; [4]) [nM],"IC50 [1, 4] [nM]"
"CCOc1ccc2c(n1)N(c1ccc(OC)cc1)C(=O)N(c1ccc3ncn(C)c3c1)C2 [Example 138, 7-ethoxy-1-(4-methoxyphenyl)-3-(1-methyl-1H-benzo[d]imidazol-6-yl)-3,4-dihydropyrido[2,3-d]pyrimidin-2(1H)-one]",< 100,> 1000,100 to 1000,< 100,,
CCNc1ccc2c(n1)N(c1ccc(OC(F)F)cc1)C(=O)N(c1ccc3nn(C)cc3c1)C2 [Example 269],< 100,> 1000,100 to 1000,100 to 1000,100 to 1000,100 to 1000
"COc1ccc(N2C(=O)N(c3ccc4nn(C)cc4c3)Cc3c(C)nc(NCC(F)(F)F)nc32)cc1 [Example 247, 1-(4-methoxyphenyl)-5-methyl-3-(2-methyl-2H-indazol-5-yl)-7-((2,2,2-trifluoroethyl)amino)-3,4-dihydropyrimido[4,5-d]pyrimidin-2(1H)-one]",< 100,100 to 1000,< 100,< 100,,
"COc1ccc(N2C(=O)N(c3ccc(=O)n(C)c3)Cc3cnc(NCC(F)(F)F)nc32)cc1 [Example 232, 1-(4-methoxyphenyl)-3-(1-methyl-6-oxo-1,6-dihydropyridin-3-yl)-7-((2,2,2-trifluoroethyl)amino)-3,4-dihydropyrimido[4,5-d]pyrimidin-2(1H)-one]",100 to 1000,> 1000,> 1000,> 1000,,
Cn1cc2cc(N3Cc4cc(F)c(OCC(F)F)nc4N(c4ccc(OC(F)F)cc4)C3=O)ccc2n1 [Example 184],< 100,> 1000,100 to 1000,100 to 1000,,
"[2H]C([2H])([2H])Oc1ccc(N2C(=O)N(c3ccc4nn(CCC(F)(F)F)cc4c3)Cc3ccc(OCC(F)F)nc32)cc1 [Example 128, 7-(2,2-difluoroethoxy)-1-(4-methoxy-d3-phenyl)-3-(2-(3,3,3-trifluoropropyl)-2H-indazol-5-yl)-3,4-dihydropyrido[2,3-d]pyrimidin-2(1H)-one]",< 100,> 1000,100 to 1000,100 to 1000,,
"COc1ccc(N2C(=O)N(c3ccc4nn(C)cc4c3)Cc3ccc(SCC(F)(F)F)nc32)cc1 [Example 161, 1-(4-methoxyphenyl)-3-(2-methyl-2H-indazol-5-yl)-7-((2,2,2-trifluoroethyl)thio)-3,4-dihydropyrido[2,3-d]pyrimidin-2(1H)-one]",< 100,> 1000,100 to 1000,100 to 1000,100 to 1000,100 to 1000
"COc1ccc(N2Cc3cnc(NCC(F)(F)F)nc3N(c3ccc(OC(F)F)cc3)C2=O)cc1 [Example 235, 1-(4-(Difluoromethoxy)phenyl)-3-(4-methoxyphenyl)-7-(2,2,2-trifluoroethylamino)-3,4-dihydropyrimido[4,5-d]pyrimidin-2(1H)-one]",< 100,> 1000,100 to 1000,100 to 1000,,
"COc1ccc(N2C(=O)N(c3ccc4nn(C)cc4c3)Cc3ccc(NC4CCC4)nc32)cc1 [Example 162, 7-(cyclobutylamino)-1-(4-methoxyphenyl)-3-(2-methyl-2H-indazol-5-yl)-3,4-dihydropyrido[2,3-d]pyrimidin-2(1H)-one]",< 100,> 1000,100 to 1000,100 to 1000,,
"CCOc1cc2c(cn1)CN(c1ccc3nn(C)cc3c1)C(=O)N2c1ccc(OC(F)F)cc1 [Example 187, 1-(4-(difluoromethoxy)phenyl)-7-ethoxy-3-(2-methyl-2H-indazol-5-yl)-3,4-dihydropyrido[4,3-d]pyrimidin-2(1H)-one]",100 to 1000,> 1000,> 1000,> 1000,,
"[2H]C([2H])([2H])Oc1ccc(N2C(=O)N(c3ccc4nn(C)cc4c3)Cc3ccc(OCC4CC4)nc32)cc1 [Example 164, 7-(cyclopropylmethoxy)-1-(4-methoxy-d3-phenyl)-3-(2-methyl-2H-indazol-5-yl)-3,4-dihydropyrido[2,3-d]pyrimidin-2(1H)-one]",< 100,> 1000,100 to 1000,100 to 1000,,
"O=C1N(c2ccc3c(c2)OCCO3)Cc2cnc(NCC(F)(F)F)nc2N1c1ccc(-c2nc[nH]n2)cc1 [Example 214, 1-(4-(1H-1,2,4-triazol-3-yl)phenyl)-3-(2,3-dihydrobenzo[b][1,4]dioxin-6-yl)-7-((2,2,2-trifluoroethyl)amino)-3,4-dihydropyrimido[4,5-d]pyrimidin-2(1H)-one]",< 100,> 1000,100 to 1000,< 100,,

# The next lines start with the values.
IC50 (MAT2A homodimer) [nM],IC50 (HCT116 MTAP+/+) [nM],IC50 (HCT116 MTAP-/-; [2]) [nM],"IC50 [1, 3] [nM]",IC50 (HCT116 MTAP-/-; [4]) [nM],"IC50 [1, 4] [nM]",SMILES
< 100,> 1000,< 100,< 100,,,"Cn1cc2cc(N3Cc4cnc(NCC(F)(F)F)nc4N(c4ccc(Br)cc4)C3=O)ccc2n1 [Example 425, 1-(4-bromophenyl)-3-(2-methyl-2H-indazol-5-yl)-7-((2,2,2-trifluoroethyl)amino)-3,4-dihydropyrimido[4,5-d]pyrimidin-2(1H)-one]"
< 100,100 to 1000,100 to 1000,100 to 1000,,,"COc1ccc(N2Cc3ncc(NCC(F)(F)F)nc3N(c3ccc(OC(F)F)cc3)C2=O)cc1 [Example 415, 1-(4-(difluoromethoxy)phenyl)-3-(4-methoxyphenyl)-7-((2,2,2-trifluoroethyl)amino)-3,4-dihydropteridin-2(1H)-one]"
< 100,> 1000,100 to 1000,< 100,,,"Cn1cc2cc(N3Cc4ccc(OCC(F)F)nc4N(c4ccc5c(c4)ncn5C)C3=O)ccc2n1 [Example 403, 7-(2,2-difluoroethoxy)-1-(1-methyl-1H-benzo[d]imidazol-5-yl)-3-(2-methyl-2H-indazol-5-yl)-3,4-dihydropyrido[2,3-d]pyrimidin-2(1H)-one]"
< 100,100 to 1000,100 to 1000,100 to 1000,,,CCOc1ccc2c(n1)N(c1ccc(OC(F)F)nc1)C(=O)N(c1ccc3nn(C)cc3c1)C2 [Example 275]
< 100,> 1000,100 to 1000,< 100,,,"Cn1cc2cc(N3Cc4ccc(OCC(F)F)nc4N(c4ccc5[nH]ncc5c4)C3=O)ccc2n1 [Example 405, 7-(2,2-difluoroethoxy)-1-(1H-indazol-5-yl)-3-(2-methyl-2H-indazol-5-yl)-3,4-dihydropyrido[2,3-d]pyrimidin-2(1H)-one]"
< 100,> 1000,100 to 1000,100 to 1000,,,"COc1ccc(N2Cc3ccc(NCC(F)(F)F)nc3N(c3ccc(OC(F)F)cc3)C2=O)cc1 [Example 406, 1-(4-(difluoromethoxy)phenyl)-3-(4-methoxyphenyl)-7-((2,2,2-trifluoroethyl)amino)-3,4-dihydropyrido[2,3-d]pyrimidin-2(1H)-one]"
< 100,100 to 1000,100 to 1000,< 100,,,"[2H]C([2H])([2H])Oc1ccc(N2C(=O)N(c3ccc4nn(C)cc4c3)Cc3cnc(NCC(F)F)nc32)cc1 [Example 420, 7-((2,2-difluoroethyl)amino)-1-(4-(methoxy-d3)phenyl)-3-(2-methyl-2H-indazol-5-yl)-3,4-dihydropyrimido[4,5-d]pyrimidin-2(1H)-one]"
